Experimental data taken from US20250346576A1, “KCNT1 INHIBITORS COMPRISING A PYRAZOLE CORE AND METHODS OF USE” (PRAXIS PRECISION MEDICINES, INC., priority 2022, published 2025).

Assays:
[1] = Log D assay (1-octanol/buffer shake flask, LC/MS/MS); format: physicochemical; details: 1-octanol/phosphate buffer; 1-octanol / 0.1 M phosphate buffer pH 7.4
Text: Log D: The Log D assay is a miniaturized 1-octanol/buffer shake flask method followed by LC/MS/MS analysis. It is typically measured by determining the partition of a compound between an organic solvent (1-octanol) and an aqueous buffer (0.1 M phosphate buffer, pH 7.4; Varied buffer pH can be set). Since log D is pH dependent, the pH of the aqueous phase is always specified and is commonly measured at pH 7.4, the physiological pH of body fluids. […] Correct the peak areas by dilution factors and embedded internal standard, and the ratio of the corrected peak areas will be used to calculate the results (Log D value). • 8) Use the QC samples to monitor the process Log D determination. • 9) Data Analysis: The Log D value for each compound is calculated by the following equation: […]

[2] = Kinetic solubility assay (shake flask, HPLC-UV); format: physicochemical; details: aqueous buffer, kinetic from dmso stock, 50 mM pH 7.4 phosphate buffer, room temperature
Protocol: Kinetic Solubility Assay: The Kinetic solubility assay employed the shake flask method followed by HPLC-UV analysis. The following step-wise procedure is used: • 1) Weigh and dissolve the samples in 100% DMSO as the stock solution of 10 mM. About 10 μL (compound/Media) of stock solution is needed in this assay. • 2) Add the test compounds and controls (10 mM in DMSO, 10 μL/vial) into the 50 mM pH 7.4 phosphate buffer (490 μL/well) placed in a Mini-Uniprep filter. • 3) Vortex the samples of kinetic solubility for 2 minutes. • 4) Incubate and shake the solubility solutions on an orbital shaker with 800 rpm at room temperature for 24 hours. • 5) Centrifuge at 4000 rpm, 20° C. for 10 minutes. • 6) Transfer 400 μL (with or without dilution) of each solubility supernatant into 96-deep well for analysis after the samples will be directly filtered by the syringeless filter device. • 7) Determine the test compound concentration of the filtrate using HPLC-UV. • 8) Inject at least 5 UV standard solutions into HPLC from low to high concentration subsequently and then test the Kinetic solubility supernatant in duplicate. • 9) Use the QC samples to monitor Kinetic solubility determination process.

| logD at 1 h [1] | solubility kinetic at 24 h [2] | Structure (SMILES) |
| --- | --- | --- |
| 4.4 | < 1.6 µM | Cn1nc(C(F)(F)F)cc1C(=O)NC1(c2cc(-c3ccnc(C(F)(F)F)c3)nn2C)CCC1 [Compound 1064, 1-methyl-N-(1-(1-methyl-3-(2-(trifluoromethyl)pyridin-4-yl)-1H-pyrazol-5-yl)cyclobutyl)-3-(trifluoromethyl)-1H-pyrazole-5-carboxamide] |
| 3 | < 1.6 µM | Cn1nc(C(F)(F)F)cc1C(=O)NC(C)(C)c1cc(-c2ccnc(C(F)(F)F)c2)nn1C [Compound 1063, 1-methyl-N-(2-(1-methyl-3-(2-(trifluoromethyl)pyridin-4-yl)-1H-pyrazol-5-yl)propan-2-yl)-3-(trifluoromethyl)-1H-pyrazole-5-carboxamide] |
